Where two headings read alike, the source gives them in different places.
How the values were obtained:
[1] = tested on: COLO205 human colon cancer xenograft; assay: Subcutaneous COLO205 human colon cancer xenograft model; format: in vivo, Mus Musculus
Experimental: Each mouse was inoculated subcutaneously with 5×10^6 COLO205 tumor cells in 0.1 ml PBS for tumor development. Treatments were started when the tumor volume reached 120 mm^3. […] Body weight and tumor volume were measured twice a week.

[2] = tested on: HCT116 human colon cancer xenograft; assay: Subcutaneous HCT116 human colon cancer xenograft model; format: in vivo, Mus Musculus; conditions: for TGI: HCT116, day 29
Experimental: Each mouse was inoculated subcutaneously with 5×10^6 HCT116 tumor cells in 0.1 ml PBS for tumor development. Treatments were started when the tumor volume reached 100 mm^3. […] Body weight and tumor volume were measured twice a week.

[3] = Toxicity studies in Cynomolgus monkeys (MTD); format: in vivo
Rat MTD study = format: in vivo, Sprague-Dawley rats
Experimental: In the rat MTD study, Sprague-Dawley rats were dosed with 801 HCl at a concentration of 6 mg/ml via intravenous infusion or slow intravenous injection. The MTD of 801 in normal rats was 120 mg/kg/day. In the 7-day repeating dose study, the rats were administered with […] via BID slow IV injection for 7 days.

[4] = Toxicity study (MTD) in normal mice; conditions: single i.p. injection; C3H female normal mice; checked daily for 40 days (MTD40)
[5] = tested on: K562 human chronic myeloid leukemia xenograft; assay: Subcutaneous K562 human chronic myeloid leukemia xenograft model
[6] = tested on: HCT116 Human Colon Cancer Cells; assay: Colony formation assay, HCT116; format: cell-based
Experimental: (§1) Cancer cells were plated in 60 mm Petri dishes containing 2.7 ml of medium (modified McCoy's 5a medium containing 10% fetal bovine serum and 100 units/ml penicillin and 100 ug/ml streptomycin). The cells were incubated in a CO2 incubator at 37 degree C. for 5 hours for attachment to the bottom of Petri dishes. Drugs were made up fresh in medium at ten times the final concentration, and then 0.3 ml of this stock solution was added to the 2.7 ml of medium in the dish. The cells were then incubated with drugs for 72 hours at 37 degree C. At the end of incubation the drug-containing media were decanted, the dishes were rinsed with 4 ml of Hank's Balance Salt Solution (HBSS), 5 ml of fresh medium was added, and the dishes were returned to the incubator for colony formation. The cell colonies were counted using colony counter after incubation for 7 days (HCT116 cell line), 14 days (VM46 cell line) and 15 days (H23 cell line). Cell survival (%) was calculated from 3 repeated dishes for each drug concentration and the mean values of IC50 (the drug concentration producing 50% inhibition of colony formation) were determined for each tested compound.

[7] = tested on: VM46 Human Colon Cancer Cells Overexpressing Multi-drug Resistant Gene 1; assay: Colony formation assay, VM46; format: cell-based; conditions: read-out: IC50 (VM46)
Experimental: as §1

[8] = tested on: H23 Human Non-small Cell Lung Cancer Cells; assay: Colony formation assay, H23; format: cell-based; conditions: read-out: IC50 (H23)
Experimental: as §1

[9] = tested on: HCT116 human colon cancer xenografts; assay: Preliminary in vivo efficacy, HCT116 xenografts in nude mice; parameters: species or system nude mice (nu/nu genotype); conditions: single i.p. injection at i.p. MTD doses
Experimental: In vivo anticancer efficacy study was performed on nude mice (nu/nu genotype) bearing HCT116 human colon cancer xenografts. These human tumors grew exponentially following implantation into the flanks of the mice and reached an average tumor volume of 79.85 cu. mm. Treatment was initiated at that time, with the first day of treatment designated as day 0 for all calculations and plots. The 6 mice were injected i.p. with each of four Neovia drug solutions (5% alcohol, 5% Cremophor EL, and 90% saline, 0.5 ml/20 g, single injection). Drug doses (i.p. MTD doses) were 120 mg/kg for Neovia-1, 300 mg/kg for Neovia-2, 120 mg/kg for Neovia-3, and 180 mg/kg for Neovia-4. Control group of mice was treated with vehicle alone. After treatment, tumor sizes were measured by caliper every other day. The measurement of the tumor diameters (d1, d2) in two orthogonal directions was used to calculate the tumor volume (tumor volume=π/6 {(d1+d2)/2}3) using the approximation that the tumors are spherical. Each tumor growth curve for each mouse was plotted. The time (days) required to grow the tumor to the size of 800 cu. mm after various treatments was calculated as tumor growth delay indexes for evaluating the treatment effects. Survival times after treatment was also observed and recorded.

in vivo = conditions: female, C3H, mouse, ip
[10] = Homo sapiens, HCT-116, drugs 72 hours, colonies counted after 7 days, read-out: IC50 (HCT116)
[11] = Homo sapiens, drugs 72 hours, colonies counted after 14 days
[12] = Homo sapiens, drugs 72 hours, colonies counted after 15 days

CCC1(OC(=O)COc2ccc(C(=O)OC3c4cc5c(cc4C(c4cc(OC)c(OC)c(OC)c4)C4C(=O)OCC34)OCO5)cc2)C(=O)OCc2c1cc1n(c2=O)Cc2cc3cc(OC(=O)N4CCC(N5CCCCC5)CC4)ccc3nc2-1.Cl (centres unmarked) [Compound 801-HCl]
TGI ([1]; 125 mg/kg i.p. q3d x 3, day 29): 70%
TGI ([2]; 125 mg/kg i.p. q3d x 3): 93%
MTD for repeating dosing ([3]; 5-day repeat dose, intravenous infusion): 30 mg/kg/day
MTD ([3]; intravenous infusion twice daily with a 5-hour interval): 60 mg/kg/day
MTD (Rat MTD study; normal Sprague-Dawley rats, 6 mg/ml via intravenous infusion or slow intravenous injection): 120 mg/kg/day
MTD Values [4]: 300 mg/kg
Mean Tumor Volume ([5]; 300 mg/kg ip Days 8, 11, 14, Day 8): 159 ± 16 mm^3
Mean Tumor Volume ([5]; 300 mg/kg ip Days 8, 11, 14, Day 11): 221 ± 27 mm^3
Mean Tumor Volume ([5]; 300 mg/kg ip Days 8, 11, 14, Day 14): 164 ± 16 mm^3
Mean Tumor Volume ([5]; 300 mg/kg ip Days 8, 11, 14, Day 18): 47 ± 7 mm^3
Mean Tumor Volume ([5]; 300 mg/kg ip Days 8, 11, 14, Day 21): 39 ± 6 mm^3
Mean Tumor Volume ([5]; 300 mg/kg ip Days 8, 11, 14, Day 25): 74 ± 12 mm^3
Mean Tumor Volume ([5]; 300 mg/kg ip Days 8, 11, 14, Day 28): 95 ± 19 mm^3
maximum BW loss ([5]; 300 mg/kg ip, next day after the 2nd dosing): 7.7%
TGI (Day 25) ([5]; K562, 300 mg/kg ip Days 8, 11, 14): 98%
CR ratio (ratio of complete regression) ([5]; K562, 300 mg/kg ip Days 8, 11, 14, by Day 21): 3/8

CCC1(OC(=O)COc2ccc(C(=O)OC3c4cc5c(cc4C(c4cc(OC)c(OC)c(OC)c4)[C@H]4C(=O)OC[C@@H]34)OCO5)cc2)C(=O)OCc2c1cc1n(c2=O)Cc2cc3c(CN(C)C)c(O)ccc3nc2-1 (some centres unmarked) [Compound N1]
IC50 [6, 10]: 24.2 nM
IC50 [7, 11]: 8 nM
IC50 [8, 12]: 7.05 nM

CCC1(OC(=O)COc2ccc(C(=O)OC3c4cc5c(cc4C(c4cc(OC)c(OC)c(OC)c4)C4C(=O)OCC34)OCO5)cc2)C(=O)OCc2c1cc1n(c2=O)Cc2cc3cc(OC(=O)N4CCC(N5CCCCC5)CC4)ccc3nc2-1 (centres unmarked) [Compound N2]
IC50 ([6]; drugs 72 hours, colonies counted after 7 days, read-out: IC50 (HCT116)): > 500 nM
IC50 ([7]; drugs 72 hours, colonies counted after 14 days): ~520 nM
IC50 ([8]; drugs 72 hours, colonies counted after 15 days): 462 nM
inhibiting the growth of HCT116 human colon cancer xenografts [9]: most promising candidate drug against HCT116 human colon cancer among all 4 compounds
MTD for repeating dosing (Rat MTD study; rats, BID slow IV injection for 7 days): 60 mg/kg/day
MTD Values [4]: 300 mg/kg

CCc1c2c(nc3ccc(OC(=O)N4CCC(N5CCCCC5)CC4)cc13)-c1cc3c(c(=O)n1C2)COC(=O)C3(CC)OC(=O)COc1ccc(C(=O)OC2c3cc4c(cc3C(c3cc(OC)c(OC)c(OC)c3)[C@H]3C(=O)OC[C@@H]23)OCO4)cc1 (some centres unmarked) [Compound N3]
IC50 ([6]; Homo sapiens, HCT-116, read-out: IC50 (HCT116)): 283 nM
IC50 ([7]; Homo sapiens): 300 nM
IC50 ([8]; Homo sapiens): 200 nM

CCc1c2c(nc3ccc(O)c(CN(C)C)c13)-c1cc3c(c(=O)n1C2)COC(=O)C3(CC)OC(=O)COc1ccc(C(=O)OC2c3cc4c(cc3C(c3cc(OC)c(OC)c(OC)c3)[C@H]3C(=O)OC[C@@H]23)OCO4)cc1 (some centres unmarked) [Compound N4]
IC50 [6, 10]: 6.6 nM
IC50 [7, 11]: 5 nM
IC50 [8, 12]: 12.9 nM
MTD (in vivo): 250 mg/kg

CCc1c2c(nc3ccc(OC(=O)N4CCC(N5CCCCC5)CC4)cc13)-c1cc3c(c(=O)n1C2)COC(=O)[C@]3(O)CC [Irinotecan]
TGI ([1]; 70 mg/kg i.p. q3d x 3, day 29): 97%
TGI ([2]; 70 mg/kg i.p. q3d x 3): 92%
body weight loss ([2]; HCT116 model, during the treatment period): 8%

CCC1(OC(=O)COc2ccc(C(=O)OC3c4cc5c(cc4C(c4cc(OC)c(OC)c(OC)c4)C4C(=O)OCC34)OCO5)cc2)C(=O)OCc2c1cc1n(c2=O)Cc2cc3c(CN(C)C)c(O)ccc3nc2-1.Cl (centres unmarked) [N1 HCL Salt]
MTD Values [4]: 120 mg/kg

CCc1c2c(nc3ccc(OC(=O)N4CCC(N5CCCCC5)CC4)cc13)-c1cc3c(c(=O)n1C2)COC(=O)C3(CC)OC(=O)COc1ccc(C(=O)OC2c3cc4c(cc3C(c3cc(OC)c(OC)c(OC)c3)C3C(=O)OCC23)OCO4)cc1.Cl (centres unmarked) [N3 HCL Salt]
MTD Values [4]: 144 mg/kg

CCc1c2c(nc3ccc(O)c(CN(C)C)c13)-c1cc3c(c(=O)n1C2)COC(=O)C3(CC)OC(=O)COc1ccc(C(=O)OC2c3cc4c(cc3C(c3cc(OC)c(OC)c(OC)c3)C3C(=O)OCC23)OCO4)cc1.Cl (centres unmarked) [N4 HCL Salt]
MTD Values [4]: 180 mg/kg
